# Key:
# Experiment in all cases: Kinase inhibition screen, cell-free 33P ATP assay at 10 μM
# Format in all cases: biochemical
# [1] = target: T1, 140 purified human kinases (Homo sapiens, UniProt O15530)
# T1 sequence (O15530 1-556): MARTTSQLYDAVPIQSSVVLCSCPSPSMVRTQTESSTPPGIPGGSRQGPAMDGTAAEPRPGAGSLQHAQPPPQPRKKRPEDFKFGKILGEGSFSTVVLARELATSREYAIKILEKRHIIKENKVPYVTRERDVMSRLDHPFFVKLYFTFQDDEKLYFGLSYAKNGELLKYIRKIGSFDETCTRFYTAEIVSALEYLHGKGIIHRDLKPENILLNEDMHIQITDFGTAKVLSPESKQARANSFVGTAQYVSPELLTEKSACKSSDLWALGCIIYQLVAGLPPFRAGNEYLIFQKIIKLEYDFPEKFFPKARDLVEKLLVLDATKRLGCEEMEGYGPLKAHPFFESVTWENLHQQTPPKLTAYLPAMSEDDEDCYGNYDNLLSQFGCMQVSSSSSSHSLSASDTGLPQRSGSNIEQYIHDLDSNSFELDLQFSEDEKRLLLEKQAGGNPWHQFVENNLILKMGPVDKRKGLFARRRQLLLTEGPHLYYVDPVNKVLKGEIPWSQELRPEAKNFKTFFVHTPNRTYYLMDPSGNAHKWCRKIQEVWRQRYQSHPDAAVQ
# Method in brief: (§1)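 Each complex tested in duplicate at 10 μM; cell-free radiometric assay using ^33P ATP on purified enzymes. Hits mapped by HGNC symbol onto the kinome tree.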
# [2] = target: T2, 140 purified human kinases (Homo sapiens, UniProt O60285)
# T2 sequence (O60285 1-661): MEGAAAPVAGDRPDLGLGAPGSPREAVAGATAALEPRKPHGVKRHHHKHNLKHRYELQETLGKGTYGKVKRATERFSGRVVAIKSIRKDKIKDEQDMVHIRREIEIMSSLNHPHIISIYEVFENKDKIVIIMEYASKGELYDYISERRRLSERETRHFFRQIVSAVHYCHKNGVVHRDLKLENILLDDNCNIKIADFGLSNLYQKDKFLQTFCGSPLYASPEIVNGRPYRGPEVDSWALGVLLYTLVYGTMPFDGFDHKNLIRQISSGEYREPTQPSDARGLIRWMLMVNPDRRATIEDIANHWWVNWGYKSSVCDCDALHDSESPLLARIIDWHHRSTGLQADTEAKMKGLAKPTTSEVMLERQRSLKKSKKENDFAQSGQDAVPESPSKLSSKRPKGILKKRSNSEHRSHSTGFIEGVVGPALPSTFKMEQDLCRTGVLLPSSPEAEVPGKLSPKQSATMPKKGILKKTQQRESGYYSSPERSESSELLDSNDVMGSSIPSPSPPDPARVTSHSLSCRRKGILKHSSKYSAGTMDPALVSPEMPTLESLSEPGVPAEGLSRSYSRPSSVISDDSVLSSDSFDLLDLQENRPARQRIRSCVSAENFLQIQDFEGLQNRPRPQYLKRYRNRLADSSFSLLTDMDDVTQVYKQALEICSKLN
# Method in brief: as §1
# [3] = target: 140 purified human kinases (Homo sapiens, UniProt O75582)
# Sequence of 140 purified human kinases (Homo sapiens, UniProt O75582) (O75582 whole entry): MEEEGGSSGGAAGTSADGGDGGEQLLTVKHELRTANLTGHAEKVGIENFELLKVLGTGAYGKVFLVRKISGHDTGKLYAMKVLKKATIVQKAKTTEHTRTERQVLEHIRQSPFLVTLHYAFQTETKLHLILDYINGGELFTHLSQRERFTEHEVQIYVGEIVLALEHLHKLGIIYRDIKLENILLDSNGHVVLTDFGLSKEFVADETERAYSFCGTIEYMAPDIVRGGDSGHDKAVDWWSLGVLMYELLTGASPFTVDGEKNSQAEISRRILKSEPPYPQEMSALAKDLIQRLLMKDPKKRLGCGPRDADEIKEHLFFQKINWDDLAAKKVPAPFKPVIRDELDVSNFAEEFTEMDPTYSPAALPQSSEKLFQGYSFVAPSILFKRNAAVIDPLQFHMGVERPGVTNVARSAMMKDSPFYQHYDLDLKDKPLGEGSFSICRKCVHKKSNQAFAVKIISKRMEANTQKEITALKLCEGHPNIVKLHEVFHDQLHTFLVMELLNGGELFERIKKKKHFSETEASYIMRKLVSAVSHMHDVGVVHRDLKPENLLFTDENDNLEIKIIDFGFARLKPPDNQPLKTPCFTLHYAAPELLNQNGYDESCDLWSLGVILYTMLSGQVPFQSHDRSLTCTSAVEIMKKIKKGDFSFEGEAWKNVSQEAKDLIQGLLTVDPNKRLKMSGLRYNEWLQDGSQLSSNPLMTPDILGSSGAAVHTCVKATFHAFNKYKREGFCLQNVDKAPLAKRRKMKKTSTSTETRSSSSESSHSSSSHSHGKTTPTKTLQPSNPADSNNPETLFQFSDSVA
# Method in brief: as §1
# [4] = target: 140 purified human kinases (Homo sapiens, UniProt O95747)
# Sequence of 140 purified human kinases (Homo sapiens, UniProt O95747) (O95747 whole entry): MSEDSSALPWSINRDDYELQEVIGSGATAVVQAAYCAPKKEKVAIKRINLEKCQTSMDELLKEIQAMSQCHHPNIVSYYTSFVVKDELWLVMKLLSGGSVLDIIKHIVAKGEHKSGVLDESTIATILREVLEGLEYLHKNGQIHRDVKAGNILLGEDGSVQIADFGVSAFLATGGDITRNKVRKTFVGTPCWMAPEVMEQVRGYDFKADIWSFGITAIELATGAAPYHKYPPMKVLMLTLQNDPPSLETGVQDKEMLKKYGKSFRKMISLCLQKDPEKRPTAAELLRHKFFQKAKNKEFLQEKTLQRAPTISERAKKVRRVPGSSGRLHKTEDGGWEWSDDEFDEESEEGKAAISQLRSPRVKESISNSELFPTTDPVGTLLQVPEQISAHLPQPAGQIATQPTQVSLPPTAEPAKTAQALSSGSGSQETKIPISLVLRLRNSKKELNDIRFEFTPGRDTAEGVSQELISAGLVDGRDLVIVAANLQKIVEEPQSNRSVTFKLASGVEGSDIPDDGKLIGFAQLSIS
# Method in brief: as §1
# [5] = target: 140 purified human kinases (Homo sapiens, UniProt P00519); details: ABL
# Method in brief: as §1
# [6] = target: 140 purified human kinases (Homo sapiens, UniProt P06213); details: IR
# Sequence of 140 purified human kinases (Homo sapiens, UniProt P06213) (P06213 28-1382): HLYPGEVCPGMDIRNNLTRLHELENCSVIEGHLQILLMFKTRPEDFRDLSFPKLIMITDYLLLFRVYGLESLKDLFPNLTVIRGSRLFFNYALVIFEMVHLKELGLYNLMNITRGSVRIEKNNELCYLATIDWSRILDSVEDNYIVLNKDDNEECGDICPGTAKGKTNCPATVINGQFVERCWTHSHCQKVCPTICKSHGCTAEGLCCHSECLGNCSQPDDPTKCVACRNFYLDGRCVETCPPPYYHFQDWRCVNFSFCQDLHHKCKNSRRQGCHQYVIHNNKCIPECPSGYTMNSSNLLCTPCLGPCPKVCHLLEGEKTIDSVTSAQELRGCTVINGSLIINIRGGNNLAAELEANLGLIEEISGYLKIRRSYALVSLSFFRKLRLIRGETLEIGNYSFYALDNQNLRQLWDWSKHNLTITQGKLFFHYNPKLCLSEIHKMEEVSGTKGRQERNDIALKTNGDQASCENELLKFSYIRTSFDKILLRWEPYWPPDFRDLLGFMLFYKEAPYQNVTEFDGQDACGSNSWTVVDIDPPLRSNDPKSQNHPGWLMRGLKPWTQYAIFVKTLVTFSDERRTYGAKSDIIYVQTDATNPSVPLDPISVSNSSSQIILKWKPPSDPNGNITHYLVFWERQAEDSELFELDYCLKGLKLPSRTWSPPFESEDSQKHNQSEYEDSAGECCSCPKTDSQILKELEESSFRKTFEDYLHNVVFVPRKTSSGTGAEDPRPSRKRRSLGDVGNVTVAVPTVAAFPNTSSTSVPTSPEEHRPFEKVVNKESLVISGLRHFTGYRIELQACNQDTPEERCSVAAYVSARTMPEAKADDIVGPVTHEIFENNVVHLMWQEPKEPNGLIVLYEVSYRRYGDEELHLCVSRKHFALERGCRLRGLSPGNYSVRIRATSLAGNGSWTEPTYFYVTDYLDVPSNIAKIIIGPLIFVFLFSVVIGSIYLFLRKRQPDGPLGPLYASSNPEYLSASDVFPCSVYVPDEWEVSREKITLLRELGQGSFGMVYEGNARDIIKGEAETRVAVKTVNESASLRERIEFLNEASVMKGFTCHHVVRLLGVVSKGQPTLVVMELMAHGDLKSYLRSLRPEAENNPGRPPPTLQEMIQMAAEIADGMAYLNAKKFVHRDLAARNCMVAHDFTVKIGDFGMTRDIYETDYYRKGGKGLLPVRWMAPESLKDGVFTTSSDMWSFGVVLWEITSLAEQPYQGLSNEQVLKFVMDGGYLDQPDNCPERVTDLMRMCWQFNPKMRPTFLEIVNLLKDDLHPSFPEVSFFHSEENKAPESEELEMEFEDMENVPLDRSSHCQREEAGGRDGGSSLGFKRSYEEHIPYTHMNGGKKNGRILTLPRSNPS
# Method in brief: as §1
# [7] = target: 140 purified human kinases (Homo sapiens, UniProt P11309)
# Sequence of 140 purified human kinases (Homo sapiens, UniProt P11309) (P11309 whole entry): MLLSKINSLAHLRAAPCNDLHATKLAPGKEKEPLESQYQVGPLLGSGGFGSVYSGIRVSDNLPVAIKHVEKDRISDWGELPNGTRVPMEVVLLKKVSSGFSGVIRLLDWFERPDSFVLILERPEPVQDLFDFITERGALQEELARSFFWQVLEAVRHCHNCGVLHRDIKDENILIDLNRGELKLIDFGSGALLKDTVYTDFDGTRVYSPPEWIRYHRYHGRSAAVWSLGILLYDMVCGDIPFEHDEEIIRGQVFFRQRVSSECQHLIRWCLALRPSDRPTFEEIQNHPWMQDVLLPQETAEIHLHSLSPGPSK
# Method in brief: as §1
# [8] = target: 140 purified human kinases (Homo sapiens, UniProt P53779)
# Method in brief: as §1
# [9] = target: 140 purified human kinases (Homo sapiens, UniProt Q13882); details: BRK
# Sequence of 140 purified human kinases (Homo sapiens, UniProt Q13882) (Q13882 whole entry): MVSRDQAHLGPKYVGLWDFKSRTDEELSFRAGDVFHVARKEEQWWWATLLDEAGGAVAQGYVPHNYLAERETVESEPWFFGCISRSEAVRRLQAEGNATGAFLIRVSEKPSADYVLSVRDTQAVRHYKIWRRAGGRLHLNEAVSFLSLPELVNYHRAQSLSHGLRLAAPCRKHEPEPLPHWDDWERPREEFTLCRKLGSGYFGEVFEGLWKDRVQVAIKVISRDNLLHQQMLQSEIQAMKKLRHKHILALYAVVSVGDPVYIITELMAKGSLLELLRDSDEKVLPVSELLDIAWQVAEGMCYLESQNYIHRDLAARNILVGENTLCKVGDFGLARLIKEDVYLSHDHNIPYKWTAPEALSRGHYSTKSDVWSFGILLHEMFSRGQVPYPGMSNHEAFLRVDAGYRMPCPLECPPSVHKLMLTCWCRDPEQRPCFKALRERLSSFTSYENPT
# Method in brief: as §1
# [10] = target: 140 purified human kinases (Homo sapiens, UniProt Q16816); details: PHK
# Sequence of 140 purified human kinases (Homo sapiens, UniProt Q16816) (Q16816 whole entry): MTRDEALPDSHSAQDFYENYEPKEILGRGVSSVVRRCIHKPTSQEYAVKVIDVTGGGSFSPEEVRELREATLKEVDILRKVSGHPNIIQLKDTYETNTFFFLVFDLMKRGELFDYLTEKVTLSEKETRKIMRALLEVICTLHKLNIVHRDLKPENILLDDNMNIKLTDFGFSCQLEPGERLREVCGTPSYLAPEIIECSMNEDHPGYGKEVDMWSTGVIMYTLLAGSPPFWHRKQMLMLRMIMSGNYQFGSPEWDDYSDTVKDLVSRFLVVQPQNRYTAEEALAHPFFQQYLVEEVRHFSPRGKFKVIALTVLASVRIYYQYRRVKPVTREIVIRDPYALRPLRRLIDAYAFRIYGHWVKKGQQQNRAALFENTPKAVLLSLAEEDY
# Method in brief: as §1
# [11] = target: 140 purified human kinases (Homo sapiens, UniProt Q9P1W9)
# Sequence of 140 purified human kinases (Homo sapiens, UniProt Q9P1W9) (Q9P1W9 whole entry): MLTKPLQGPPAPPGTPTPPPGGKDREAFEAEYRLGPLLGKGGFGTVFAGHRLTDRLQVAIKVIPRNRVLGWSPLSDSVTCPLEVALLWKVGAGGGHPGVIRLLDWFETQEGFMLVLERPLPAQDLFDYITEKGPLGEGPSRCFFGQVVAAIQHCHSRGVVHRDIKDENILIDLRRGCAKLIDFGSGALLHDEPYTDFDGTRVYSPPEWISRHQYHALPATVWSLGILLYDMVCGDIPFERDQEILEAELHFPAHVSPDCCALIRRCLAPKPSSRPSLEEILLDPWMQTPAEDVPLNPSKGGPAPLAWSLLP
# Method in brief: as §1
# [12] = target: 140 purified human kinases (Homo sapiens, UniProt Q9Y6E0)
# Sequence of 140 purified human kinases (Homo sapiens, UniProt Q9Y6E0) (Q9Y6E0 whole entry): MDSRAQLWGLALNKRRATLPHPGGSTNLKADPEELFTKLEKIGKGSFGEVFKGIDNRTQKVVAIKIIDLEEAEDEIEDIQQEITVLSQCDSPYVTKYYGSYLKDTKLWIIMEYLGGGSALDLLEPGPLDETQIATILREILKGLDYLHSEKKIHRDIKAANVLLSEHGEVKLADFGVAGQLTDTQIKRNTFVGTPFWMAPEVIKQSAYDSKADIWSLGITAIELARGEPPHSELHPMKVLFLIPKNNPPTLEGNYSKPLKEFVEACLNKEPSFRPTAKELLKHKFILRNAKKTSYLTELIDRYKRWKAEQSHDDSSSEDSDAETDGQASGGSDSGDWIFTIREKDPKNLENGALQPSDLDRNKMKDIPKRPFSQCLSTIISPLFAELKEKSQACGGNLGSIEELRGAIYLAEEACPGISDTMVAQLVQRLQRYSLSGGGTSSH
# Method in brief: as §1
compound,measurement,setting,value
[Cu+2].[Cu+2].[Cu+2].c1ccc(-c2csc(NCCN(CCNc3nc(-c4ccccn4)cs3)CCNc3nc(-c4ccccn4)cs3)n2)nc1.c1ccc(-c2csc(NCCN(CCNc3nc(-c4ccccn4)cs3)CCNc3nc(-c4ccccn4)cs3)n2)nc1 [[L2Cu3]6+],"% Activation, Mean value",[1]; PDK1,6.45%
same,% Inhibition Run 1,[1]; PDK1,12.4%
same,% Inhibition Run 2,[1]; PDK1,-25.3%
same,"% Inhibition, Mean",[1]; PDK1,-6.45%
same,mean % activity,[1]; PDK1,106%
same,% activity,"[1]; PDK1, Run 1",87.6%
same,% activity,"[1]; PDK1, Run 2",125.3%
same,% Inhibition Run 1,[2]; NUAK1,93.9%
same,% Inhibition Run 2,[2]; NUAK1,92.9%
same,"% Inhibition, Mean",[2]; NUAK1,93%
same,mean % activity,[2]; NUAK1,6.6%
same,% activity,"[2]; NUAK1, Run 1",6.1%
same,% activity,"[2]; NUAK1, Run 2",7.1%
same,% Activity inhibition Mean,"[2]; NUAK1, 10 µM",93.4%
same,% Activity inhibition Run 1,"[2]; NUAK1, 10 µM",93.9%
same,% Activity inhibition Run 2,"[2]; NUAK1, 10 µM",92.9%
same,% Activity remaining Run 1,"[2]; NUAK1, 10 µM",6.10%
same,% Activity remaining Run 2,"[2]; NUAK1, 10 µM",7.10%
same,% Inhibition Run 1,[3]; MSK1,67.5%
same,% Inhibition Run 2,[3]; MSK1,74.8%
same,"% Inhibition, Mean",[3]; MSK1,71%
same,mean % activity,[3]; MSK1,29%
same,% activity,"[3]; MSK1, Run 1",32.5%
same,% activity,"[3]; MSK1, Run 2",25.2%
same,"% Activation, Mean value",[4]; OSR1,48%
same,% Inhibition Run 1,[4]; OSR1,-39.6%
same,% Inhibition Run 2,[4]; OSR1,-55.9%
same,"% Inhibition, Mean",[4]; OSR1,-48%
same,mean % activity,[4]; OSR1,148%
same,% activity,"[4]; OSR1, Run 1",139.6%
same,% activity,"[4]; OSR1, Run 2",155.9%
same,% Activity Run 1,"[4]; OSR1, 10 µM",139.60%
same,% Activity Run 2,"[4]; OSR1, 10 µM",155.90%
same,"% Activation, Mean value",[5],17%
same,% Inhibition Run 1,[5],-27.4%
same,% Inhibition Run 2,[5],-7.5%
same,"% Inhibition, Mean",[5],-17%
same,mean % activity,[5],117%
same,% activity,[5]; Run 1,127.4%
same,% activity,[5]; Run 2,107.5%
same,% Activity Run 1,[5]; 10 µM,127.40%
same,% Activity Run 2,[5]; 10 µM,107.50%
same,% Inhibition Run 1,[6],20%
same,% Inhibition Run 2,[6],18.1%
same,"% Inhibition, Mean",[6],19%
same,mean % activity,[6],81%
same,% activity,[6]; Run 1,80%
same,% activity,[6]; Run 2,81.9%
same,% Inhibition Run 1,[7]; PIM1,53.7%
same,% Inhibition Run 2,[7]; PIM1,42%
same,"% Inhibition, Mean",[7]; PIM1,48%
same,mean % activity,[7]; PIM1,52%
same,% activity,"[7]; PIM1, Run 1",46.3%
same,% activity,"[7]; PIM1, Run 2",58%
same,% Inhibition Run 1,[8]; JNK3,62%
same,% Inhibition Run 2,[8]; JNK3,41.6%
same,"% Inhibition, Mean",[8]; JNK3,52%
same,mean % activity,[8]; JNK3,48%
same,% activity,"[8]; JNK3, Run 1",38%
same,% activity,"[8]; JNK3, Run 2",58.4%
same,% Inhibition Run 1,[9],67.9%
same,% Inhibition Run 2,[9],57.6%
same,"% Inhibition, Mean",[9],63%
same,mean % activity,[9],37%
same,% activity,[9]; Run 1,32.1%
same,% activity,[9]; Run 2,42.4%
same,% Inhibition Run 1,[10],59.9%
same,% Inhibition Run 2,[10],49.3%
same,"% Inhibition, Mean",[10],55%
same,mean % activity,[10],45%
same,% Inhibition Run 1,[11]; PIM2,-3.6%
same,% Inhibition Run 2,[11]; PIM2,7%
same,"% Inhibition, Mean",[11]; PIM2,1.7%
same,mean % activity,[11]; PIM2,98%
same,% activity,"[11]; PIM2, Run 1",103.6%
same,% activity,"[11]; PIM2, Run 2",93%
same,% Inhibition Run 1,[12]; MST3,9.9%
same,% Inhibition Run 2,[12]; MST3,-5.7%
same,"% Inhibition, Mean",[12]; MST3,2%
same,mean % activity,[12]; MST3,98%
same,% activity,"[12]; MST3, Run 1",90.1%
same,% activity,"[12]; MST3, Run 2",105.7%
